From US10981932B2, “Macrocyclic indole derivatives” (Bayer Aktiengesellschaft, priority 2016, dated 2021)
Structures can show the parent of a compound that is named as a salt. Where two headings read alike, the source gives them in different places.

Columns and labels:
MCL-1 = MCL-1 (Homo sapiens, UniProt Q07820); assay: Protein-protein interaction assay MCL-1/Noxa BH3 peptide (MCL-1 assay), TR-FRET; type: binding; conditions: MBP-MCL-1 / Noxa BH3-derived peptide, median
How it was run: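 Steady-state competition, MCL-1/Noxa BH3, TR-FRET readout; 1 nM MBP-MCL-1, 11-point dose series 0.1 nM–20 μM; overnight 4 °C equilibration; 4-parameter IC50.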

SUDHL5 [1] = assay: Induction of caspase-3/7 activity (Caspase-Glo 3/7), SUDHL5; type: cell-based; conditions: caspase-3/7 induction, SUDHL5 cells, 3 h treatment, median
How it was run: (§1)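 A 3 h, 37 °C compound incubation precedes the Caspase-Glo 3/7 read. After subtracting medium-only signal, EC50s are fitted against the reference compound's maximal caspase induction.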

SUDHL10 [2] = assay: Induction of caspase-3/7 activity (Caspase-Glo 3/7), SUDHL10; type: cell-based; conditions: caspase-3/7 induction, SUDHL10 cells, 3 h treatment, median
How it was run: as §1

SUDHL5 [3] = assay: Anti-proliferative effect (CellTiter-Glo, 72 h), SUDHL5; type: cell-based; conditions: SUDHL5 cells, antiproliferation, median, read-out: Antiproli SUDHL5 [M] (median)
How it was run: (§2)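 Endpoint: CellTiter-Glo luminescence, 10 min after reagent addition. Treatment ran 72 h at 37 °C, humidified. Growth was referenced to a separately plated day 0 plate.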

A2780 = assay: Anti-proliferative effect (CellTiter-Glo, 72 h), A2780; type: cell-based; conditions: A2780 cells, median, read-out: IC50 antiproliferation assay A2780 [M] (median)
How it was run: as §2

MV-4-11 = assay: Anti-proliferative effect (CellTiter-Glo, 72 h), MV-4-11; type: cell-based; conditions: MV-4-11 cells, median, read-out: IC50 antiproliferation assay MV-4-11 [M] (median)
How it was run: as §2

SUDHL5 [4] = assay: Induction of cytotoxicity (CellTiter-Glo, 5 h), SUDHL5
SUDHL10 [5] = assay: Induction of cytotoxicity (CellTiter-Glo, 5 h), SUDHL10
[6] = read-out: Cytotox SUDHL5 [M] (median), SUDHL5 cells, cytotoxicity induction, CellTiter-Glo, 5 h incubation, median
[7] = read-out: Cytotox SUDHL10 [M] (median), SUDHL10 cells, cytotoxicity induction, CellTiter-Glo, 5 h incubation, median
[8] = read-out: Cytotox SUDHL5 [M] (median), SUDHL5 cells, cytotoxicity induction, CellTiter-Glo, 5 h, median
[9] = read-out: Cytotox SUDHL10 [M] (median), SUDHL10 cells, cytotoxicity induction, CellTiter-Glo, 5 h, median
[10] = Homo sapiens, SU-DHL-5, 72 h, 72 h
[11] = Homo sapiens, SU-DHL-5, 5 h, read-out: Cytotox SUDHL5 [M] (median), SUDHL5 cells, cytotoxicity induction, CellTiter-Glo, 5 h, median
[12] = Homo sapiens, SU-DHL10, 5 h, read-out: Cytotox SUDHL10 [M] (median), SUDHL10 cells, cytotoxicity induction, CellTiter-Glo, 5 h, median

MCL-1, sequence (Q07820 whole entry): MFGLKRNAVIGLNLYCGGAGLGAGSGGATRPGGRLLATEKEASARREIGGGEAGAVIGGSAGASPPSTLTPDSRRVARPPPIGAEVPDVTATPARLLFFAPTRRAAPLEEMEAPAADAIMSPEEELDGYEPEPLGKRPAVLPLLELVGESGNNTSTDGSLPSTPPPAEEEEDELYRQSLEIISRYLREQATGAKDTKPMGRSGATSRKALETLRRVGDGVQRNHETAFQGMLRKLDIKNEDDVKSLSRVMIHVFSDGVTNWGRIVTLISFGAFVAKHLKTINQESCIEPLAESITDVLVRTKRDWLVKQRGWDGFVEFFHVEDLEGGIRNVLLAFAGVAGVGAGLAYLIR

Compound	IC50 (MCL-1) [µM]	EC50 (SUDHL5 [1]) [µM]	EC50 (SUDHL10 [2]) [µM]	IC50 (A2780; Homo sapiens, A2780, 72 h) [M]	IC50 (MV-4-11; Homo sapiens, MV4-11, 72 h) [M]	IC50 (SUDHL5 [3]; 72 h) [M]	IC50 (MV-4-11) [M]	IC50 (SUDHL5 [4]; [8]) [M]	IC50 (SUDHL10 [5]; [9]) [M]	IC50 (A2780) [M]	EC50 (SUDHL10 [2]; Homo sapiens, SU-DHL10, 3 h) [µM]	further results
Cc1ccc2c(C(C)CCOc3cccc4cc(F)ccc34)c(C(=O)O)n3c2c1-c1c(nn(C)c1C)COCCCC3 (single isomer, unassigned) [Example 277, 7-{4-[(6-fluoronaphthalen-1-yl)oxy]butan-2-yl}-2,3,4-trimethyl-2,10,11,12,13,15-hexahydropyrazolo[4′3′:9,10][1,6]oxazacycloundecino[8,7,6-hi]indole-8-carboxylic Acid]	0.0013	1.4	1.8	1.5e-05	8.78e-06	–	–	–	–	–	–	IC50 (SUDHL5 [3]; 72 h incubation): 2.05e-06 M; IC50 (SUDHL5 [4]; [6]): 2.1e-06 M; IC50 (SUDHL10 [5]; [7]): 2.28e-06 M
Cc1c2c(nn1C)COCCCCn1c(C(=O)O)c(CCCOc3cccc4cc(F)ccc34)c3cccc-2c31 (single isomer, unassigned; enantiomer 2) [Example 302, (+)-7-{3-[(6-fluoronaphthalen-1-yl)oxy]propyl}-2,3-dimethyl-2,10,11,12,13,15-hexahydropyrazolo[4′,3′:9,10][1,6]oxazacycloundecino[8,7,6-hi]indole-8-carboxylic Acid (Enantiomer 2)]	0.00126	0.674	4.2	2.25e-05	–	1.99e-06	4.78e-06	1.05e-06	3.49e-06	–	–	–
Cc1c2c(nn1C)COCCCCn1c(C(=O)O)c(CCCOc3cccc4cc(F)ccc34)c3cccc-2c31 (single isomer, unassigned; enantiomer 1) [Example 303, (−)-7-{3-((6-fluoronaphthalen-1-yl)oxypropyl}-2,3-dimethyl-2,10,11,12,13,15-hexahydropyrazolo[4′,3′:9,10][1,6]oxazacycloundecino[8,7,6-hi]indole-8-carboxylic Acid (Enantiomer 1)]	0.0268	> 33	> 33	–	–	6.97e-06	2.61e-05	> 3.3e-05	> 3.3e-05	2.4e-05	–	–
CCc1nn(C)c2c1-c1cccc3c(CCCOc4cccc5c(F)cccc45)c(C(=O)O)n(c13)CCCCOC2 (single isomer, unassigned) [Example 300, 3-ethyl-7-{3-[(5-fluoronaphthalen-1-yl)oxy]propyl}-1-methyl-1,10,11,12,13,15-hexahydropyrazolo[4′3′:9,10][1,6]oxazacycloundecino[8,7,6-hi]indole-Carboxylic Acid]	0.00127	3.93	20.7	–	–	5.13e-06	2.15e-05	5.8e-06	2.25e-05	> 3.3e-05	–	–
CCc1nn(C)c2c1-c1cccc3c(CCCOc4cccc5c4CCCC5)c(C(=O)O)n(c13)CCCCOC2 (racemic) [Example 291, (rac)-12-ethyl-10-methyl-1-(3-((5,6,7,8-tetrahydronaphthalen-1-yl)oxy)propyl)-4,5,6,7,9,10-hexahydropyrazolo[4′,3′:9,10][1]oxa[6]azacycloundecino[8,7,6-hi]indole-2-carboxylic Acid]	0.00238	–	> 33	> 3.3e-05	1.82e-05	–	–	–	–	–	32	EC50 (SUDHL5 [1]; Homo sapiens, SU-DHL-5, 3 h): 8.51 µM; IC50 (SUDHL5 [3]; [10]): 8.71e-06 M; IC50 (SUDHL5 [4]; [11]): 8.6e-06 M; IC50 (SUDHL10 [5]; [12]): > 3.3e-05 M
CCc1c2c(nn1C)COCCCCn1c(C(=O)O)c(CCCOc3cccc4c3CCCC4)c3cccc-2c31 (racemic) [Example 290, (rac)-12-ethyl-11-methyl-1-(3-((5,6,7,8-tetrahydronaphthalen-1-yl)oxy)propyl)-4,5,6,7,9,11-hexahydropyrazolo[4′,3′:9,10][1]oxa[6]azacycloundecino[8,7,6-hi]indole-2-carboxylic Acid]	0.0028	–	–	> 3.3e-05	9.57e-06	–	–	–	–	2.62e-05	13.6	EC50 (SUDHL5 [1]; Homo sapiens, SU-DHL-5, 3 h): 3.38 µM; IC50 (SUDHL5 [3]; [10]): 5.06e-06 M; IC50 (SUDHL5 [4]; [11]): 3.61e-06 M; IC50 (SUDHL10 [5]; [12]): 1.19e-05 M
Cc1nn(C)c2c1-c1cccc3c(CCCOc4cccc5ccccc45)c(C(=O)O)n(c13)CCCCCN(C)C2 [Example 237, (rac)-1,3,15-Trimethyl-7-[3-(naphthalen-1-yloxy)propyl]-1,10,11,12,13,14,15,16-octahydropyrazolo[4′,3′:4,5][1,7]diazacyclododecino[3,2,1-hi]indole-8-carboxylic Acid]	0.00499	–	–	1.9e-05	1.35e-05	–	–	–	–	–	15.7	EC50 (SUDHL5 [1]; Homo sapiens, SU-DHL-5, 3 h): 5.55 µM; IC50 (SUDHL5 [3]; Homo sapiens, SU-DHL-5, 72 h, 72 h incubation): 5.65e-06 M; IC50 (SUDHL5 [4]; Homo sapiens, SU-DHL-5, 5 h, read-out: Cytotox SUDHL5 [M] (median), SUDHL5 cells, cytotoxicity induction, CellTiter-Glo, 5 h incubation, median): 6.6e-06 M; IC50 (SUDHL10 [5]; Homo sapiens, SU-DHL10, 5 h, read-out: Cytotox SUDHL10 [M] (median), SUDHL10 cells, cytotoxicity induction, CellTiter-Glo, 5 h incubation, median): 1.18e-05 M
Cn1nc2c(c1OC(F)F)-c1cccc3c(CCCOc4cccc5ccccc45)c(C(=O)O)n(c13)CCCCOC2 (single isomer, unassigned) [Example 236, (+)-3-(difluoromethoxy)-2-methyl-7-[3-(naphthalen-1-yloxy)propyl]-2,10,11,12,13,15-hexahydropyrazolo[4′,3′:9,10][1,6]oxazacycloundecino[8,7,6-hi]indole-8-carboxylic Acid]	0.00678	11.2	25.1	–	–	–	2.19e-05	–	–	2.6e-05	–	IC50 (SUDHL5 [3]; 72 h incubation): 9.48e-06 M; IC50 (SUDHL5 [4]; [6]): 1.06e-05 M; IC50 (SUDHL10 [5]; [7]): 2.52e-05 M
Cc1ccc2c(CCCOc3cccc4cc(F)ccc34)c(C(=O)O)n3c2c1-c1c(nn(CCN2CCOCC2)c1C)COCCCC3 (single isomer, unassigned) [Example 293, (+)-7-{3-[(6-fluoronaphthalen-1-yl)oxy]propyl}-3,4-dimethyl-2-[2-(morpholin-4-yl)ethyl]-2,10,11,12,13,15-hexahydropyrazolo[4′,3′:9,10][1,6]oxazacycloundecino[8,7,6-hi]indole-8-carboxylic acid-N-ethylethanamine Salt]	0.000676	0.309	0.947	1.08e-05	–	6.43e-07	2.08e-06	4.23e-07	9.88e-07	–	–	–
CCc1nn(C)c2c1-c1cccc3c(CCCOc4cccc5c(F)cccc45)c(C(=O)O)n(c13)CCCCOC2 (single isomer, unassigned) [Example 299, 3-ethyl-7-{3-[(5-fluoronaphthalen-1-yl)oxy]propyl}-1-methyl-1,10,11,12,13,15-hexahydropyrazolo[4′,3′:9,10][1,6]oxazacycloundecino[8,7,6-hi]indole-8-carboxylic Acid]	0.166	> 33	–	2.32e-05	2.63e-05	–	–	> 3.3e-05	–	–	> 33	IC50 (SUDHL5 [3]; [10]): 7.39e-06 M; IC50 (SUDHL10 [5]; [12]): > 3.3e-05 M
Cn1nc(CC(F)(F)F)c2c1COCCCCn1c(C(=O)O)c(CCCOc3cccc4ccccc34)c3cccc-2c31 (single isomer, unassigned) [Example 221, 1-methyl-7-[3-(naphthalen-1-yloxy)propyl]-3-(2,2,2-trifluoroethyl)-1,10,11,12,13,15-hexahydropyrazolo[4′,3′:9,10][1,6]oxazacycloundecino[8,7,6-hi]indole-8-carboxylic acid-N-ethylethanamine Salt]	0.353	> 33	> 33	–	–	–	> 3.3e-05	–	–	3.28e-05	–	IC50 (SUDHL5 [3]; 72 h incubation): 9.75e-06 M; IC50 (SUDHL5 [4]; [6]): > 3.3e-05 M; IC50 (SUDHL10 [5]; [7]): > 3.3e-05 M
